# Test results as given in US12180146B2, “Antihypertensive polyol compound and derivative thereof” (TAO PHARMACEUTICAL (SUZHOU) CO., LTD, priority 2020, dated 2024).
# How the values were obtained:
# [1] = tested on: monocrotaline-induced pulmonary hypertension model rats (MCT-PAH); assay: Monocrotaline-induced pulmonary hypertension model rats, oral (gavage) treatment for 21 days; type: in vivo, SD rats; settings: 100 mg/kg
# From the text: Monocrotaline (MCT) was subcutaneously injected to establish an animal model of pulmonary hypertension in SD rats. At the same time, compound 1 was given by gavage for treatment. The pulmonary artery hemodynamics and right heart hypertrophy index RVHI of the rates were detected to determine whether the oral administration of compound 1 has effects of improving Monocrotaline induces pulmonary hypertension.
# SD rats (purchased from Shanghai Xipuer-Bikai Experimental Animal Co., Ltd.), male, weighing 180-200 g, were bred in an artificially controlled animal room with each 12 hours of light and darkness at a temperature of 20-25° C. and relative humidity of 50-60%, and allowed ad libitum to food and water. The rats were randomly divided into groups according to the experimental requirements, and kept separately in cages, with 3 to 4 rats per cage. All relevant operations of animal experiments are in compliance with the provisions of “Guidelines for the Management and Use of Laboratory Animals” of China.
# During the experiment, SD rats were randomly divided into 4 groups: blank control group, pulmonary hypertension model group, Selexipag (1 mg/kg) treatment group and compound 1 (100 mg/kg) group with 6 rats in each group, and the concentration in brackets represents the administration concentration of the compound, in which Selexipag is a new oral long-acting prostacyclin receptor agonist discovered and synthesized by Japan New Drug Co., Ltd. On the first day of the experiment, normal saline was injected subcutaneously into the back of neck of rats in the blank control group, and monocrotaline (Chengdu Purifa Biotechnology Co., Ltd.) solution was injected in the rats in other groups at a dosage of 60 mg/kg. Both the positive drug, Selexipag and Compound 1 were administered by gavage. Selexipag and […] were dissolved in 0.5% CMC-Na solution. The rats were continuously administered for 21 days with a volume of […]. The rats in the control and model groups were given the corresponding volume of CMC-Na solution by gavage. Specific groupings can be found in Table 7.
# After the administration, the pulmonary vascular hemodynamics and RVHI was determined according to the same experiment method as that in Example 1.
# [2] = tested on: spontaneously hypertensive rats (SHR); assay: Antihypertensive activity test: blood pressure and heart rate of spontaneously hypertensive rats (SHR); type: in vivo, rat; settings: 200 mg/kg
# Method in brief: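 Spontaneously hypertensive rats received compound at 200 mg/kg. SBP and heart rate were measured before and after dosing. A drop in SBP of ≥20 mmHg from baseline counted as effective, and heart-rate changes were tested by paired t-test (P<0.05).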
# [3] = after administration (6 h M ± SD), n = 8
# [4] = before administration, M ± SD, n = 8
smiles,measurement,setting,value
"CCc1cccc(C(O)CO)c1 (stereo not shown) [Compound 1, 1-(3-ethylphenyl)-1,2-ethylene glycol]",2 × MT/ED,[1],0.27 ± 0.062
same,RVHI,[1],0.31 ± 0.059
same,RVSP,[1],39.72 ± 3.46 mmHg
same,mPAP,[1],9.21 ± 2.69 mmHg
same,RVHI,"[1]; listed as compound 1, 100 mg/kg",0.31±0.059
same,time after administration of maximum antihypertensive effects,[2],3 h
same,"SHR heart rate, time after administration 0 h","[2]; 0 h, N = 8",356 ± 46.4 beat/min
same,"Heart rate Difference before and after administration, 1 h",[2]; 1 h,−9 beat/min
same,"SBP Difference before and after administration, 1 h",[2]; 1 h,16 mmHg
same,"SHR heart rate, time after administration 1 h","[2]; 1 h, N = 8",348 ± 39.3 beat/min
same,"SHR blood pressure (SBP), time after administration 1 h","[2]; 1 h, n = 8",176 ± 9.55 mmHg
same,"Heart rate Difference before and after administration, 2 h",[2]; 2 h,23 beat/min
same,"SBP Difference before and after administration, 2 h",[2]; 2 h,20 mmHg
same,"SHR heart rate, time after administration 2 h","[2]; 2 h, N = 8",380 ± 34.1 beat/min
same,"SHR blood pressure (SBP), time after administration 2 h","[2]; 2 h, n = 8",172 ± 7.36 mmHg
same,"Heart rate Difference before and after administration, 3 h",[2]; 3 h,28 beat/min
same,"SBP Difference before and after administration, 3 h",[2]; 3 h,23 mmHg
same,"SHR heart rate, time after administration 3 h","[2]; 3 h, N = 8",385 ± 31.5 beat/min
same,"SHR blood pressure (SBP), time after administration 3 h","[2]; 3 h, n = 8",169 ± 4.07 mmHg
same,"Heart rate Difference before and after administration, 4 h",[2]; 4 h,28 beat/min
same,"SBP Difference before and after administration, 4 h",[2]; 4 h,19 mmHg
same,"SHR heart rate, time after administration 4 h","[2]; 4 h, N = 8",385 ± 30.4 beat/min
same,"SHR blood pressure (SBP), time after administration 4 h","[2]; 4 h, n = 8",173 ± 7.15 mmHg
same,"Heart rate Difference before and after administration, 5 h",[2]; 5 h,16 beat/min
same,"SBP Difference before and after administration, 5 h",[2]; 5 h,17 mmHg
same,"SHR heart rate, time after administration 5 h","[2]; 5 h, N = 8",372 ± 28.5 beat/min
same,"SHR blood pressure (SBP), time after administration 5 h","[2]; 5 h, n = 8",175 ± 5.61 mmHg
same,"Heart rate Difference before and after administration, 6 h",[2]; 6 h,17 beat/min
same,"SBP Difference before and after administration, 6 h",[2]; 6 h,11 mmHg
same,"SHR heart rate, time after administration 6 h","[2]; 6 h, N = 8",373 ± 31.3 beat/min
same,"SHR blood pressure (SBP), time after administration 6 h","[2]; 6 h, n = 8",180 ± 6.66 mmHg
same,"Blood pressure (SBP, mmHg) After administration",[2]; [3],174 ± 4.01 mmHg
same,Heart rate (beat/min) After administration,[2]; [3],368 ± 25.5 beat/min
same,Heart rate Difference (beat/min),[2]; after administration minus baseline (6 h),12 beat/min
same,Blood pressure Difference mmHg,[2]; baseline minus after administration (6 h),18 mmHg
same,"Blood pressure (SBP, mmHg) Baseline",[2]; [4],192 ± 7.98 mmHg
same,Heart rate (beat/min) Baseline,[2]; [4],356 ± 46.4 beat/min
